Measurements taken from US10894770B2, “Fullerene derivative and n-type semiconductor material” (DAIKIN INDUSTRIES, LTD., priority 2015, dated 2021).

Legend:
[1] = LUMO level estimated from cyclic voltammetry (CV); type: physicochemical; settings: for E1/2^1, half-wave potential of the first reduction wave: CV, 3-electrode system, chlorobenzene:acetonitrile=5:1, n-Bu4NPF6 0.1 mol/L; for LUMO: ELUMO=−(E1/2^1+4.8) eV, from CV
Method: The LUMO level can be measured by a method according to Karakawa et al., Journal of Materials Chemistry A, 2014, vol. 2, p. 20889.
The LUMO level of the fullerene derivatives obtained in Synthesis Examples and the control compounds was estimated from the measured values in cyclic voltammetry (CV).
The measurement was performed in accordance with the experiment section in M. Karakawa et al., Journal of Material Chemistry A, 2014, vol. 2, p. 20889. • Measurement Device: BAS CV-50W Voltammetric Analyzer • Measurement Solvent: Chlorobenzene:Acetonitrile=5:1 • Supporting Electrolyte: n-Bu4NPF6 concentration 0.1 mol/L
The LUMO level is calculated from the half-wave potential E1/2^1 (Fc/Fc^+ benchmark) of the first reduction wave measured by CV (3-electrode system) using the following equation. ELUMO=−(E1/2^1+4.8)ev

[2] = Solubility measured with a toluene solution (absorbance of the supernatant of a supersaturated solution); type: physicochemical; settings: room temperature, from absorbance and molar extinction coefficient
Method: The solubility in toluene at room temperature can be determined from the absorbance in accordance with the Beer-Lambert law. First, a molar extinction coefficient is determined using a fullerene derivative toluene solution of a known concentration. A predetermined amount of the supernatant of a supersaturated fullerene derivative toluene solution is weighed, and the absorbance of this solution is measured. The concentration is calculated from the following equation. C=A/εd wherein C is a concentration; A is an absorbance; ε is a molar extinction coefficient; and d is a cell length for absorbance measurement (1 cm)
The solubility of each fullerene derivative was calculated from the absorbance measured with an ultraviolet-visible absorptiometer.
In advance, the absorbance of the fullerene derivatives of a predetermined concentration was measured to determine the molar extinction coefficient of each compound.
A supersaturated toluene solution of a fullerene derivative was prepared. A predetermined amount of the supernatant of this solution was taken out, and its absorbance was measured.
From the measured absorbance value and the molar extinction coefficient, the concentration of the supernatant of the supersaturated toluene solution was determined.

CCCCOCC1N(c2ccccc2)C(c2ccccc2)C23c4c5c6c7c8c9c(c%10c%11c2c2c%12c4c4c%13c5c5c7c7c8c8c%14c9c%10c9c%10c%11c2c2c%11c%12c4c4c%12c%13c5c5c7c7c8c8c%14c9c9c%10c2c2c%11c4c4c%12c5c7c5c8c9c2c45)C613 (stereo not drawn) [Compound 4]
E1/2^1, half-wave potential of the first reduction wave [1]: −1.17 V vs Fc/Fc^++ | LUMO [1]: −3.63 eV | Solubility in Toluene [2]: 0.5%

CCCCCCC1N(c2ccccc2)CC23C4=c5ccc6c7ccc8c9ccc%10c%11ccc%12c%13c(c%14c%15c2c5c6c2c7c8c5c9c%10c(c%13%11)c%14c5c%152)C13C=%12C=C4 (stereo not drawn) [Control Compound 2, reference compound]
E1/2^1, half-wave potential of the first reduction wave [1]: −1.14 V vs Fc/Fc^++ | LUMO [1]: −3.66 eV | Solubility in Toluene [2]: 1.8%

CCCCCCC1N(c2ccccc2)C(c2ccccc2)C23c4c5c6c7c8c9c(c%10c%11c2c2c%12c4c4c%13c5c5c7c7c8c8c%14c9c%10c9c%10c%11c2c2c%11c%12c4c4c%12c%13c5c5c7c7c8c8c%14c9c9c%10c2c2c%11c4c4c%12c5c7c5c8c9c2c45)C613 (stereo not drawn) [Compound 1]
E1/2^1, half-wave potential of the first reduction wave [1]: −1.16 V vs Fc/Fc^++ | LUMO [1]: −3.64 eV | Solubility in Toluene [2]: 0.5%

COC(=O)CCCC1(c2ccccc2)C23c4c5c6c7c8c9c(c%10c%11c2c2c%12c4c4c%13c5c5c7c7c8c8c%14c9c%10c9c%10c%11c2c2c%11c%12c4c4c%12c%13c5c5c7c7c8c8c%14c9c9c%10c2c2c%11c4c4c%12c5c7c5c8c9c2c45)C613 (stereo not drawn) [[60]PCBM, [6,6]-phenyl-C61-butyric acid methyl ester, reference compound]
E1/2^1, half-wave potential of the first reduction wave [1]: −1.13 V vs Fc/Fc^++ | LUMO [1]: −3.67 eV

COCCOCCOCC1N(c2ccccc2)C(c2ccccc2)C23c4c5c6c7c8c9c(c%10c%11c2c2c%12c4c4c%13c5c5c7c7c8c8c%14c9c%10c9c%10c%11c2c2c%11c%12c4c4c%12c%13c5c5c7c7c8c8c%14c9c9c%10c2c2c%11c4c4c%12c5c7c5c8c9c2c45)C613 (stereo not drawn) [Compound 3]
E1/2^1, half-wave potential of the first reduction wave [1]: −1.17 V vs Fc/Fc^++ | LUMO [1]: −3.63 eV | Solubility in Toluene [2]: 0.5%

C1=CC2=c3ccc4c5ccc6c7ccc8c9ccc%10c%11c%12c%13c%14c(c3c4c3c5c6c4c7c8c(c%119)c%13c4c%143)C23C(c2ccccc2)N(c2ccccc2)CC%123C=%101 (stereo not drawn) [Control Compound 1, reference compound]
E1/2^1, half-wave potential of the first reduction wave [1]: −1.13 V vs Fc/Fc^++ | LUMO [1]: −3.67 eV | Solubility in Toluene [2]: 0.3%

CCCCCCC1N(c2ccccc2)C(CC(CC)CCCC)C23c4c5c6c7c8c9c(c%10c%11c2c2c%12c4c4c%13c5c5c7c7c8c8c%14c9c%10c9c%10c%11c2c2c%11c%12c4c4c%12c%13c5c5c7c7c8c8c%14c9c9c%10c2c2c%11c4c4c%12c5c7c5c8c9c2c45)C613 (stereo not drawn) [Compound 8]
Solubility in Toluene [2]: 7.0%

CCCCC(CC)CC1N(c2ccccc2)C(c2ccccc2)C23c4c5c6c7c8c9c(c%10c%11c2c2c%12c4c4c%13c5c5c7c7c8c8c%14c9c%10c9c%10c%11c2c2c%11c%12c4c4c%12c%13c5c5c7c7c8c8c%14c9c9c%10c2c2c%11c4c4c%12c5c7c5c8c9c2c45)C613 (stereo not drawn) [Compound 2]
E1/2^1, half-wave potential of the first reduction wave [1]: −1.17 V vs Fc/Fc^++ | LUMO [1]: −3.63 eV | Solubility in Toluene [2]: 1.0%
